What all share (type): in vivo
Test [1] relates to mustard beetle larvae (Phaedon cochleariae). Nature of the test: Phaedon cochleariae spray test. To be noted: mortality, Chinese cabbage leaf disks sprayed. As to the method:
(§1) Formula for the efficacy of the combination of two compounds • The expected efficacy of a given combination of two compounds is calculated as follows (see Colby, S. R., “Calculating Synergistic and antagonistic Responses of Herbicide Combinations”, Weeds 15, pp. 20-22, 1967):
(§2) • X is the efficacy expressed in % mortality of the untreated control for test compound A at a concentration of m ppm respectively m g/ha, • Y is the efficacy expressed in % mortality of the untreated control for test compound B at a concentration of n ppm respectively n g/ha, • E is the efficacy expressed in % mortality of the untreated control using the mixture of A and B at m and n ppm respectively m and n g/ha,
(§3) If the observed insecticidal efficacy of the combination is higher than the one calculated as “E”, then the combination of the two compounds is more than additive, i.e., there is a synergistic effect.
• Solvent: 78.0 parts by weight of acetone • 1.5 parts by weight of dimethylformamide • Emulsifier: alkylaryl polyglycol ether […]
(§4) After the specified period of time, mortality in % is determined. […] The mortality values determined thus are recalculated using the Colby-formula (see sheet 1).

Test [2] has as its system green peach aphid (Myzus persicae). Nature of the test: Myzus persicae spray test. To be noted: mortality. As to the method:
as §1, §2, §3
• Solvent: 78.0 parts by weight acetone • 1.5 parts by weight dimethylformamide • Emulsifier: alkylaryl polyglycol ether […]
as §4

Test [3] concerns southern root-knot nematode (Meloidogyne incognita). The test is described as follows: Meloidogyne incognita test (MELGIN). To be noted: nematicidal activity by gall formation on salad roots, 0.08 ppm. Here is the method: as §1, §2, §3
• Solvent: 125.0 parts by weight of acetone
To produce a suitable preparation of active compound, 1 part by weight of active compound is mixed with the stated amount of solvent, and the concentrate is diluted with water to the desired concentration. […]
After the specified period the nematicidal activity is determined on the basis of the percentage of gall formation. […] The values determined thus are recalculated using the Colby-formula (see sheet 1).

With `N#Cc1nn(-c2c(Cl)cc(C(F)(F)F)cc2Cl)c(N)c1[S+]([O-])C(F)(F)F` (centres unmarked) [Fipronil], the “Efficacy in % after 6d” value in test [1] (0.8 g ai/ha) is recorded as 0%; in test [2] (0.8 g ai/ha, test 2, 6 d), 0%. The “Efficacy in % after 1d” value in test [2] (4 g ai/ha, test 1, 1 d) came to 0%.

On to Abamectin, for which the “Efficacy in % after 6d” value in test [1] (0.2 g ai/ha) came out at 0%. For the same molecule, the “Efficacy in % after 14d” value in test [3] came to 0%.
